For 1 compound, IC50 results are on record in ChEMBL document CHEMBL5726454, “Protein tyrosine kinase modulators and methods of use” (2017).

Usually IC50 stands for the concentration needed to halve the response being measured.

For the assay, the target named is ALK tyrosine kinase receptor (Homo sapiens, UniProt Q9UM73). Briefly: 2.5 uL-4x Test Compound or 100 nL 100x plus 2.4 uL kinase buffer; 2. 5 uL-2x Peptide/Kinase Mixture; 3. 2.5 uL-4xATP Solution; 4. 30-second plate shake; 5. 60-minute Kinase Reaction incubation at room temperature; 6. 5 uL-Development Reagent Solution; 7. 30-second plate shake; 8. 60-minute Development Reaction incubation at room temperature; 9. […] After the 1 hour Kinase Reaction incubation, 5 uL of a 1:256 dilution of Development Reagent B is added.
Chain of ALK tyrosine kinase receptor (Q9UM73 whole entry): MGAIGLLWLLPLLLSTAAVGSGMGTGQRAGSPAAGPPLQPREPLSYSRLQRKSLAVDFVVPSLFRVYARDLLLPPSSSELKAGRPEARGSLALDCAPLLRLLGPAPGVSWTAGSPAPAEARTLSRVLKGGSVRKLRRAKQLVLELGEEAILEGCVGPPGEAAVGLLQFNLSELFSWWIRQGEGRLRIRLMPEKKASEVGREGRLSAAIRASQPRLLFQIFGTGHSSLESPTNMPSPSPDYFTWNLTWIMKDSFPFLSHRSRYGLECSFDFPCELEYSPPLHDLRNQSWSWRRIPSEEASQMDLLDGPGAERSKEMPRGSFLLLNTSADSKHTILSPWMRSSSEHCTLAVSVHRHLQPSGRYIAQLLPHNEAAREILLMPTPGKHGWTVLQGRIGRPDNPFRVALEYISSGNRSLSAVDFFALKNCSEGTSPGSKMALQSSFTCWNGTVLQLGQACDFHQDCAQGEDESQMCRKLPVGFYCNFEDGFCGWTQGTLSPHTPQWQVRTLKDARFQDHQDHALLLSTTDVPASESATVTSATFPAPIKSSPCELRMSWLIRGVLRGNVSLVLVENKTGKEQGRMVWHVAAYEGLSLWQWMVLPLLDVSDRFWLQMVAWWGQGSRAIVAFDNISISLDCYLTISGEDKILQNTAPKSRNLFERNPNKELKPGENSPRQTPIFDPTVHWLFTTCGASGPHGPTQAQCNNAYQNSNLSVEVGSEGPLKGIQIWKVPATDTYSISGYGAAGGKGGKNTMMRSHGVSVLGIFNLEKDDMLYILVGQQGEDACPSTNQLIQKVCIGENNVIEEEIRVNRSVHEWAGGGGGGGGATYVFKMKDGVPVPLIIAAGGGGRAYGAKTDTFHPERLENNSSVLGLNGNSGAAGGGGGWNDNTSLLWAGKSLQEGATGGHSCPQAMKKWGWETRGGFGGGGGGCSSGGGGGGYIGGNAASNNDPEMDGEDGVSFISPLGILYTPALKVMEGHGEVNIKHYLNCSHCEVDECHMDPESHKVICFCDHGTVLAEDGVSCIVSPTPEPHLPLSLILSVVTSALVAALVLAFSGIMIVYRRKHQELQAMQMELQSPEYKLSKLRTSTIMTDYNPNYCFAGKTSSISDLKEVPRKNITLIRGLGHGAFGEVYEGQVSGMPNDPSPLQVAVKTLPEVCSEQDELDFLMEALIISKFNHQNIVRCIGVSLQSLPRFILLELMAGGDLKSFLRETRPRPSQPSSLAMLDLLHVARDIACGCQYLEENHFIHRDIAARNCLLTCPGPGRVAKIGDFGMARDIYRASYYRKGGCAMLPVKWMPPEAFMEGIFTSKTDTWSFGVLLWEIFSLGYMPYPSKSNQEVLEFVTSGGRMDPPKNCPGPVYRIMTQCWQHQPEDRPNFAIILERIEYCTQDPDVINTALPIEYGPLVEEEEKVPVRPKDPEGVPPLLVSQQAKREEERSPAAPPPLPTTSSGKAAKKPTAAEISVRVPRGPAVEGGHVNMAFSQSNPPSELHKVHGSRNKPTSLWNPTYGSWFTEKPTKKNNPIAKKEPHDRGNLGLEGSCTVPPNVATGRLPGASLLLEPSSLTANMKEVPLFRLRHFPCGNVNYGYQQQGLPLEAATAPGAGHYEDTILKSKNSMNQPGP

Regarding `COc1cc(N2CCC(N(C)C)CC2)ccc1Nc1ncc(Cl)c(Nc2ccccc2C(=O)C(N)=O)n1`, the IC50 was found to be 27.9 nM.
